Key:
TRPA1 = biological target: T1, TRPA1 (Mus musculus, UniProt Q8BLA8); experiment: Calcium response of DRG neurons to mustard (allyl isothiocyanate); type: cell-based; settings: cultured DRG neurons, fluorescence microscopy
T1 construct: The receptors TRPA1 and TRPV1 are expressed on neurons; from tissue; host or cells: primary dorsal root ganglion neurons from mice
Excerpt: FIG. 11. Calcium response from DRG sensory neurons to alkamide of transient receptors. Mustard a TRPA1-receptor agonist activates DRG neurons in gray (A) and capsaicin, an agonist for TRPV1-receptors in the DRG neurons in red (B). Ligand A15 inhibits both TRPA1 and TRPV1 receptors activation in orange; however, 85Y a synthetic ligand only reduces the inhibition of TRPA1 but not TRPV1 receptors in blue. Total number of neurons (n)=135-145; p≤0.05.
Several different model systems were utilized for these experiments. In one model, dorsal root ganglia were obtained from mice and the neurons cultured in vitro. The neurons were then stimulated in the presence/absence of A15 and YM8-85 and the calcium responses monitored by fluorescence microscopy. In the second model, the alkamides were applied to mouse skin in mineral oil. The reactions of these mice to heat, cold, and tactile stimulation was then compared with mice that had not received treatment with A15. […] Alkamides were applied to sensitized animals and then ear swelling and bouts of scratching were monitored.
In vitro DRG neuron responses. […] Neurons were stimulated with mustard (allyl isothiocyanate) (A) an agonist for the receptor TRPA-1 or capsaicin (B) an agonist for the receptor TRPV-1 and calcium responses were measured in individual neurons by fluorescence microscopy. […]

RBL-2H3 cells [1] = experiment: TNF-α ELISA, 18 hrs (Example 3); type: cell-based, rat; settings: 1 μM A23187, 18 hours
Procedure: FIGS. 25A-25B. […] RBL-2H3 cells were plated overnight and stimulated with 1 μM A23187 in the absence or presence of each alkamide for 18 h. Culture supernatants were analyzed for TNF-α levels by ELISA and experiments were performed in triplicate (FIG. 25A). Percent inhibition of TNF-α secretion for each alkamide listed in FIG. 25B. *P<0.05, **P<0.01, ***P<0.001, one-way ANOVA with Dunnett's post hoc test compared to vehicle (FIG. 25A) or A15 (FIG. 25B).
RBL-2H3 cells (1.0×10^5 cells) were incubated overnight in a 24 well plate at 37° C. with 5% CO2. Cells were washed with 1×PBS and stimulated with 1 μM A23187 for 18 hrs in the absence or presence of each compound. The cells were centrifuged (1200×g, 5 min) and the supernatants were collected. The concentration of TNF-α in the supernatants were determined using the TNF-α ELISA kit.

RBL-2H3 cells [2] = experiment: Calcium assay, Fluo-4 (Example 3); type: cell-based, rat
Procedure: FIGS. 22A-22D. The alkamide fatty acid is necessary for inhibition of calcium influx. RBL-2H3 cells were plated overnight, incubated with Fluo-4 AM for 1 h, stimulated by 1 μM A23187 (FIG. 22A) or 5 ng/mL DNP-BSA (FIG. 22B) in the absence or presence of each alkamide, and fluorescence was read for 2 mins every 5 secs. Data are presented as the mean change in RFU of 4 experiments. Percent inhibition of calcium influx was calculated for A23187 (FIG. 22C) and DNP-BSA (FIG. 22D) stimulated cells at 2 mins. *P<0.05, **P<0.01, and ***P<0.001 one-way ANOVA with Dunnett's post hoc test compared to A15.
RBL-2H3 cells (1.0×10^5 cells) were incubated overnight in a 96 well black-wall clear bottom plate with or without IgE-DNP (0.1 μg/mL) at 37° C. with 5% CO2. The assay was performed using the Fluo-4 Direct™ Calcium Assay Kit according to the manufacturer's instruction. Briefly, cells were incubated with the Fluo-4 Direct calcium reagent loading solution for 30 minutes at 37° C. with 5% CO2 then 30 mins at room temperature. Prior to stimulation, the well baseline fluorescence was measured every 5 seconds over 1 minute using a BioTek Synergy HT microplate reader with 485/20 nm excitation and 528/20 nm emission filters. Cells were stimulated with 1 μM A23187 or 5 ng/mL DNP (IgE-DNP) in the absence or presence of each compound, and the fluorescence was measured every 5 seconds over 2 minutes. The change in fluorescence (ΔRT) was calculated as the sample fluorescence minus the baseline fluorescence for each well.

[3] = TDI-induced scratching bouts (itch); type: in vivo, mouse; settings: higher dose 1.0%
Excerpt: (§1) Several different model systems were utilized for these experiments. In one model, dorsal root ganglia were obtained from mice and the neurons cultured in vitro. The neurons were then stimulated in the presence/absence of A15 and YM8-85 and the calcium responses monitored by fluorescence microscopy. In the second model, the alkamides were applied to mouse skin in mineral oil. The reactions of these mice to heat, cold, and tactile stimulation was then compared with mice that had not received treatment with A15. In a third model, mice were sensitized to the chemical compound toluene-2,4-diisocyanate (TDI). TDI is an industrial chemical which causes hypersensitive skin lesions and itching in exposed humans and animals. The physiological response to TDI is complex involving type 2 T lymphocytes, cytokines, mast cells, and neurons. Alkamides were applied to sensitized animals and then ear swelling and bouts of scratching were monitored.
The effects of A15 on TDI-induced itch. The itch response was also monitored in mice sensitized and treated with TDI. Treated mice were video recorded and the number of scratching bouts quantified by an observer.

TDI-induced ear swelling = type: in vivo, mouse
Excerpt: as §1
A15 and TDI induced hypersensitivity. Mice were sensitized to toluene-2,4-diisocyanate (TDI) via abdominal application. Subsequently, a hypersensitive response was induced in the ear by direct application of TDI and ear thickness measured as a sign of inflammation.

RBL-2H3 cells [4] = experiment: β-Hexosaminidase release assay (Example 3); type: cell-based, rat
Procedure: FIGS. 21A-21D. The inhibition of degranulation is dependent on the length of the alkamide fatty acid chain. RBL-2H3 cells were plated overnight, stimulated with 1 μM A23187 (FIG. 21A) or 5 ng/mL DNP-BSA (FIG. 21B) for 1 h in the absence or presence of each compound. Graphs display the mean percent β-hex release. Data are presented as the mean of 4 experiments. Percent inhibition of degranulation of A23187 (FIG. 21C) or DNP-BSA (FIG. 21D) using data from A and B, respectively. *P<0.05, **P<0.01, ***P<0.001, one-way ANOVA with Dunnett's post hoc test compared to vehicle (A, B) or A15 (C, D).
RBL-2H3 cells (1.0×10^5 cells) were incubated with or without 0.1 μg/mL of IgE-DNP overnight in a 96 well plate at 37° C. with 5% CO2. The cells were washed with Tyrode's buffer and assayed with few modifications (Kuehn, Radinger, & Gilfillan, 2010). Briefly, IgE-DNP sensitized cells were stimulated 1 hour with 5 ng/mL of DNP-BSA in the absence or presence of each compound and incubated at 37° C. with 5% CO2. For experiments using only A23187 as the stimulant, cells were washed with Tyrode's buffer and stimulated 1 hour with 1 μM A23187 in the absence or presence of each compound and incubated at 37° C. with 5% CO2. The stimulated cells were centrifuged at 1200×g for 5 minutes. The supernatant or cell lysate (30 μL) was incubated with 3.4 mg/mL of p-NAG (10 μL) for 1 hour at 37° C. The reaction was terminated by addition of 0.2 M sodium carbonate (pH 10) and the absorbance was read at OD405 nm on a BioTek Synergy HT microplate reader. The total 3-hexosaminidase released from the cell was calculated as the difference between the OD of the supernatant and blank plus the difference between the OD of the lysate and blank. The percent β-hexosaminidase released from the cell was calculated as the difference between the OD of the supernatant and blank divided by the total β-hexosaminidase released from the cell multiplied by 100: ODsupernatant−ODblank/[(ODlysate−ODblank)+(ODsupernatant−ODblank)]*100.

T1 sequence (Q8BLA8 whole entry): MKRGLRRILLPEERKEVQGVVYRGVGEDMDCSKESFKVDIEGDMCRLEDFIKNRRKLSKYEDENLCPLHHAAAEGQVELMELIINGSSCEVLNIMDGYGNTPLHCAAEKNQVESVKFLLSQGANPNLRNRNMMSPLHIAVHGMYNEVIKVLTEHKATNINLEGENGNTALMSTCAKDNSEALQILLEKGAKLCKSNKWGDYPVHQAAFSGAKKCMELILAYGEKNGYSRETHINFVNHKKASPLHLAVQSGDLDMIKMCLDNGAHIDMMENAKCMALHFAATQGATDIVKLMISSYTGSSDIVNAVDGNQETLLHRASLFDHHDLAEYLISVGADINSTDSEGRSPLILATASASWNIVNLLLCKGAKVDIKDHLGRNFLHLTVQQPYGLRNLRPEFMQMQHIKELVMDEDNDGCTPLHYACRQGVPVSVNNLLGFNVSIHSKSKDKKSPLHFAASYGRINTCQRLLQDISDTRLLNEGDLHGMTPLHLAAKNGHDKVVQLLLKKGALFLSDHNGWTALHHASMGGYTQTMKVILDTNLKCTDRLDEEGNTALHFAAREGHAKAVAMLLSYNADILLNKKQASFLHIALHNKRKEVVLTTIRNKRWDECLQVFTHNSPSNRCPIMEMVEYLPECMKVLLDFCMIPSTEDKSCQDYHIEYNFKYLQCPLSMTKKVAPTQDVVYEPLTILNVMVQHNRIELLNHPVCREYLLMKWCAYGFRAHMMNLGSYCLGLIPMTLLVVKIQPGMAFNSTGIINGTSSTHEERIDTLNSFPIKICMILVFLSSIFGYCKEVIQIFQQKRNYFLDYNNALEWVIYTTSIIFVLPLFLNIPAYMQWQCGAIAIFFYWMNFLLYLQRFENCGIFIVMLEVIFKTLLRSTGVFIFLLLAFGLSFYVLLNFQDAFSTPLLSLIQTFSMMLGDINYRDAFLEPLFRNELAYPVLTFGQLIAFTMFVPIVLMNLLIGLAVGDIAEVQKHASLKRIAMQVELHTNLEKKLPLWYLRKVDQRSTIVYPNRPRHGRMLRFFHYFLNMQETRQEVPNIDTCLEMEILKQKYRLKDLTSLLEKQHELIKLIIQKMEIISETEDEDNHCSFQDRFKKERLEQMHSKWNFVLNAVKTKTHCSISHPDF

For CCCCCCCC(=O)NCC(C)C [YM8-85, N-Isobutyloctanamide], the “DRG neuron calcium response to mustard (TRPA1 agonist)” value (TRPA1) was “inhibit”, the “percent inhibition of TNF-α secretion” value (RBL-2H3 cells [1]) was 43% and the “percent inhibition of calcium influx” value (RBL-2H3 cells [2]; 5 ng/mL DNP-BSA, at 2 minutes) was 49%. For the same molecule, the “percent inhibition of calcium influx” value (RBL-2H3 cells [2]; 1 μM A23187, at 2 minutes) was 91%, the “scratching bouts in TDI treated mice” value [3] was “significant inhibition of scratching” and the “TDI ear swelling (ear thickness)” value (TDI-induced ear swelling; 0.1%, first experiment (FIG. 13A)) was “significant responses were not seen”. For the same molecule, the “TDI ear swelling (ear thickness)” value (TDI-induced ear swelling; 0.1%, repeated experiment (FIG. 13B)) was “neither A15 nor YM8-85 at 0.1% produced significant inhibition”, the “TDI ear swelling (ear thickness)” value (TDI-induced ear swelling; 1%, first experiment (FIG. 13A)) was “significant responses were not seen” and the “percent inhibition of degranulation” value (RBL-2H3 cells [4]; 5 ng/mL DNP-BSA, 1 hour) was 60%. For the same molecule, the “percent inhibition of degranulation” value (RBL-2H3 cells [4]; 1 μM A23187, 1 hour) was 64%.

Reference: patent US20200290950A1, “ALKAMIDE COMPOUNDS AND USES THEREOF” (NORTH CAROLINA STATE UNIVERSITY, priority 2017, published 2020)
